In ChEMBL document CHEMBL1201861, “Genomics of Drug Sensitity in Cancer screening data, Wellcome Trust Sanger Institute”:
pIC50: −log10 of the molar value.

Columns and labels:
Assay in all cases: cells
COLO-800 = type: functional, cell-based, Homo sapiens
Description: SANGER: Inhibition of human COLO-800 cell growth in a cell viability assay.

Lu-65 = type: functional, cell-based, Homo sapiens
Description: SANGER: Inhibition of human LU-65 cell growth in a cell viability assay.

A4-Fuk = type: functional, cell-based, Homo sapiens
Description: SANGER: Inhibition of human A4-Fuk cell growth in a cell viability assay.

Becker = type: functional, cell-based, Homo sapiens
Description: SANGER: Inhibition of human Becker cell growth in a cell viability assay.

KLE = type: functional, cell-based, Homo sapiens
Description: SANGER: Inhibition of human KLE cell growth in a cell viability assay.

CTV-1 = type: functional, cell-based, Homo sapiens
Description: SANGER: Inhibition of human CTV-1 cell growth in a cell viability assay.

EW-3 = type: functional, cell-based, Homo sapiens
Description: SANGER: Inhibition of human EW-3 cell growth in a cell viability assay.

NCI-H1299 = type: functional, cell-based, Homo sapiens
Description: SANGER: Inhibition of human NCI-H1299 cell growth in a cell viability assay.

NCI-N87 = type: functional, cell-based, Homo sapiens
Description: SANGER: Inhibition of human NCI-N87 cell growth in a cell viability assay.

TE-12 = type: functional, cell-based, Homo sapiens
Description: SANGER: Inhibition of human TE-12 cell growth in a cell viability assay.

HEL = type: functional, cell-based, Homo sapiens
Description: SANGER: Inhibition of human HEL cell growth in a cell viability assay.

MZ1-PC = type: functional, cell-based, Homo sapiens
Description: SANGER: Inhibition of human MZ1-PC cell growth in a cell viability assay.

GT3TKB = type: functional, cell-based, Homo sapiens
Description: SANGER: Inhibition of human GT3TKB cell growth in a cell viability assay.

SCH = type: functional, cell-based, Homo sapiens
Description: SANGER: Inhibition of human SCH cell growth in a cell viability assay.

BE-13 = type: functional, cell-based, Homo sapiens
Description: SANGER: Inhibition of human BE-13 cell growth in a cell viability assay.

NCI-H209 = type: functional, cell-based, Homo sapiens
Description: SANGER: Inhibition of human NCI-H209 cell growth in a cell viability assay.

ML-2 = type: functional, cell-based, Homo sapiens
Description: SANGER: Inhibition of human ML-2 cell growth in a cell viability assay.

L-428 = type: functional, cell-based, Homo sapiens
Description: SANGER: Inhibition of human L-428 cell growth in a cell viability assay.

NCI-H1770 = type: functional, cell-based, Homo sapiens
Description: SANGER: Inhibition of human NCI-H1770 cell growth in a cell viability assay.

LB1047-RCC = type: functional, cell-based, Homo sapiens
Description: SANGER: Inhibition of human LB1047-RCC cell growth in a cell viability assay.

ES8 = type: functional, cell-based, Homo sapiens
Description: SANGER: Inhibition of human ES8 cell growth in a cell viability assay.

GI-1 = type: functional, cell-based, Homo sapiens
Description: SANGER: Inhibition of human GI-1 cell growth in a cell viability assay.

KP-N-YS = type: functional, cell-based, Homo sapiens
Description: SANGER: Inhibition of human KP-N-YS cell growth in a cell viability assay.

SF-126 = type: functional, cell-based, Homo sapiens
Description: SANGER: Inhibition of human SF126 cell growth in a cell viability assay.

D-502MG = type: functional, cell-based, Homo sapiens
Description: SANGER: Inhibition of human D-502MG cell growth in a cell viability assay.

GCIY = type: functional, cell-based, Homo sapiens
Description: SANGER: Inhibition of human GCIY cell growth in a cell viability assay.

HCC2157 = type: functional, cell-based, Homo sapiens
Description: SANGER: Inhibition of human HCC2157 cell growth in a cell viability assay.

ATN-1 = type: functional, cell-based, Homo sapiens
Description: SANGER: Inhibition of human ATN-1 cell growth in a cell viability assay.

NCI-H1650 = type: functional, cell-based, Homo sapiens
Description: SANGER: Inhibition of human NCI-H1650 cell growth in a cell viability assay.

HCE-T = type: functional, cell-based, Homo sapiens
Description: SANGER: Inhibition of human HCE-T cell growth in a cell viability assay.

EW-1 = type: functional, cell-based, Homo sapiens
Description: SANGER: Inhibition of human EW-1 cell growth in a cell viability assay.

ETK-1 = type: functional, cell-based, Homo sapiens
Description: SANGER: Inhibition of human ETK-1 cell growth in a cell viability assay.

GOTO = type: functional, cell-based, Homo sapiens
Description: SANGER: Inhibition of human GOTO cell growth in a cell viability assay.

NB13 = type: functional, cell-based, Homo sapiens
Description: SANGER: Inhibition of human NB13 cell growth in a cell viability assay.

SHP77 = type: functional, cell-based, Homo sapiens, SHP-77
Description: SANGER: Inhibition of human SHP-77 cell growth in a cell viability assay.

ES6 = type: functional, cell-based, Homo sapiens
Description: SANGER: Inhibition of human ES6 cell growth in a cell viability assay.

LU-139 = type: functional, cell-based, Homo sapiens
Description: SANGER: Inhibition of human LU-139 cell growth in a cell viability assay.

NB10 = type: functional, cell-based, Homo sapiens
Description: SANGER: Inhibition of human NB10 cell growth in a cell viability assay.

SK-LMS-1 = type: functional, cell-based, Homo sapiens
Description: SANGER: Inhibition of human SK-LMS-1 cell growth in a cell viability assay.

NEC8 = type: functional, cell-based, Homo sapiens
Description: SANGER: Inhibition of human NEC8 cell growth in a cell viability assay.

HCE-4 = type: functional, cell-based, Homo sapiens
Description: SANGER: Inhibition of human HCE-4 cell growth in a cell viability assay.

BV-173 = type: functional, cell-based, Homo sapiens
Description: SANGER: Inhibition of human BV-173 cell growth in a cell viability assay.

AM-38 = type: functional, cell-based, Homo sapiens
Description: SANGER: Inhibition of human AM-38 cell growth in a cell viability assay.

RCC10RGB = type: functional, cell-based, Homo sapiens
Description: SANGER: Inhibition of human RCC10RGB cell growth in a cell viability assay.

Calu-6 = type: functional, cell-based, Homo sapiens
Description: SANGER: Inhibition of human Calu-6 cell growth in a cell viability assay.

NCI-H446 = type: functional, cell-based, Homo sapiens
Description: SANGER: Inhibition of human NCI-H446 cell growth in a cell viability assay.

NCI-H2126 = type: functional, cell-based, Homo sapiens
Description: SANGER: Inhibition of human NCI-H2126 cell growth in a cell viability assay.

NCI-H226 = type: functional, cell-based, Homo sapiens
Description: SANGER: Inhibition of human NCI-H226 cell growth in a cell viability assay.

SK-MEL-1 = type: functional, cell-based, Homo sapiens
Description: SANGER: Inhibition of human SK-MEL-1 cell growth in a cell viability assay.

NB69 = type: functional, cell-based, Homo sapiens
Description: SANGER: Inhibition of human NB69 cell growth in a cell viability assay.

## O=C(O)c1ccc(-c2c[nH]c3ncc(-c4ccccc4)cc23)cc1C1CCCC1 [GSK-650394]
COLO-800; Homo sapiens, COLO-800
  pIC50: < 4.80
Lu-65; Homo sapiens, Lu-65
  pIC50: < 4.80
A4-Fuk; Homo sapiens, A4-Fuk
  pIC50: 4.83
Becker; Homo sapiens, Becker
  pIC50: < 4.80
KLE; Homo sapiens, KLE
  pIC50: < 4.80
CTV-1; Homo sapiens, CTV-1
  pIC50: < 4.80
EW-3; Homo sapiens, EW-3
  pIC50: < 4.80
NCI-H1299; Homo sapiens, NCI-H1299
  pIC50: 5.22
NCI-N87; Homo sapiens, NCI-N87
  pIC50: < 4.80
TE-12; Homo sapiens, TE-12
  pIC50: 5.70
HEL; Homo sapiens, HEL
  pIC50: 4.97
MZ1-PC; Homo sapiens, MZ1-PC
  pIC50: < 4.80
GT3TKB; Homo sapiens, GT3TKB
  pIC50: < 4.80
SCH; Homo sapiens, SCH
  pIC50: < 4.80
BE-13; Homo sapiens, BE-13
  pIC50: < 4.80
NCI-H209; Homo sapiens, NCI-H209
  pIC50: < 4.80
ML-2; Homo sapiens, ML-2
  pIC50: < 4.80
L-428; Homo sapiens, L-428
  pIC50: < 4.80
NCI-H1770; Homo sapiens, NCI-H1770
  pIC50: 5.00
LB1047-RCC; Homo sapiens, LB1047-RCC
  pIC50: 5.21
ES8; Homo sapiens, ES8
  pIC50: 5.15
GI-1; Homo sapiens, GI-1
  pIC50: < 4.80
KP-N-YS; Homo sapiens, KP-N-YS
  pIC50: 5.36
SF-126; Homo sapiens, SF-126
  pIC50: 5.06
D-502MG; Homo sapiens, D-502MG
  pIC50: < 4.80
GCIY; Homo sapiens, GCIY
  pIC50: < 4.80
HCC2157; Homo sapiens, HCC2157
  pIC50: 4.87
ATN-1; Homo sapiens, ATN-1
  pIC50: < 4.80
NCI-H1650; Homo sapiens, NCI-H1650
  pIC50: < 4.80
HCE-T; Homo sapiens, HCE-T
  pIC50: < 4.80
EW-1; Homo sapiens, EW-1
  pIC50: < 4.80
ETK-1; Homo sapiens, ETK-1
  pIC50: 4.99
GOTO; Homo sapiens, GOTO
  pIC50: < 4.80
NB13; Homo sapiens, NB13
  pIC50: < 4.80
SHP77; Homo sapiens, SHP77
  pIC50: < 4.80
ES6; Homo sapiens, ES6
  pIC50: 5.06
LU-139; Homo sapiens, LU-139
  pIC50: < 4.80
NB10; Homo sapiens, NB10
  pIC50: < 4.80
SK-LMS-1; Homo sapiens, SK-LMS-1
  pIC50: 5.27
NEC8; Homo sapiens, NEC8
  pIC50: < 4.80
HCE-4; Homo sapiens, HCE-4
  pIC50: 5.12
BV-173; Homo sapiens, BV-173
  pIC50: < 4.80
AM-38; Homo sapiens, AM-38
  pIC50: < 4.80
RCC10RGB; Homo sapiens, RCC10RGB
  pIC50: < 4.80
Calu-6; Homo sapiens, Calu-6
  pIC50: < 4.80
NCI-H446; Homo sapiens, NCI-H446
  pIC50: < 4.80
NCI-H2126; Homo sapiens, NCI-H2126
  pIC50: < 4.80
NCI-H226; Homo sapiens, NCI-H226
  pIC50: 4.81
SK-MEL-1; Homo sapiens, SK-MEL-1
  pIC50: < 4.80
NB69; Homo sapiens, NB69
  pIC50: < 4.80

## BLEOMYCIN
COLO-800; colo-800
  pIC50: 5.66
Lu-65; lu-65
  pIC50: 4.71
A4-Fuk; a4-fuk
  pIC50: 4.60
Becker; becker
  pIC50: 4.57
KLE; kle
  pIC50: 4.67
CTV-1; ctv-1
  pIC50: 5.31
EW-3; ew-3
  pIC50: 4.73
NCI-H1299; nci-h1299
  pIC50: 6.97
NCI-N87; nci-n87
  pIC50: 5.53
TE-12; te-12
  pIC50: 6.14
HEL; hel
  pIC50: 4.97
MZ1-PC; mz1-pc
  pIC50: 6.65
GT3TKB; gt3tkb
  pIC50: 8.16
SCH; sch
  pIC50: 3.35
BE-13; be-13
  pIC50: 6.40
NCI-H209; nci-h209
  pIC50: 4.46
ML-2; ml-2
  pIC50: 6.88
L-428; l-428
  pIC50: 4.28
NCI-H1770; nci-h1770
  pIC50: 5.28
LB1047-RCC; lb1047-rcc
  pIC50: 7.49
ES8; es8
  pIC50: 5.85
GI-1; gi-1
  pIC50: 5.92
KP-N-YS; kp-n-ys
  pIC50: 4.52
SF-126; sf-126
  pIC50: 5.51
D-502MG; d-502mg
  pIC50: 3.00
GCIY; gciy
  pIC50: 4.89
HCC2157; hcc2157
  pIC50: 4.03
ATN-1; atn-1
  pIC50: 4.72
NCI-H1650; nci-h1650
  pIC50: 6.30
HCE-T; hce-t
  pIC50: 5.55
EW-1; ew-1
  pIC50: 5.74
ETK-1; etk-1
  pIC50: 7.09
GOTO; goto
  pIC50: 6.26
NB13; nb13
  pIC50: 4.43
SHP77; shp-77
  pIC50: 3.85
ES6; es6
  pIC50: 6.39
LU-139; lu-139
  pIC50: 2.46
NB10; nb10
  pIC50: 4.86
SK-LMS-1; sk-lms-1
  pIC50: 5.58
NEC8; nec8
  pIC50: 7.57
HCE-4; hce-4
  pIC50: 6.34
BV-173; bv-173
  pIC50: 6.07
AM-38; am-38
  pIC50: 5.31
RCC10RGB; rcc10rgb
  pIC50: 4.15
Calu-6; calu-6
  pIC50: 5.12
NCI-H446; nci-h446
  pIC50: 4.72
NCI-H2126; nci-h2126
  pIC50: 3.45
NCI-H226; nci-h226
  pIC50: 4.11
SK-MEL-1; sk-mel-1
  pIC50: 3.58
NB69; nb69
  pIC50: 6.04
